The values below come from patent US10023592B2, “Bromodomain inhibitors” (Celgene Quanticel Research, Inc., priority 2013, dated 2018).

Structures are written as SMILES. Read-outs that look alike come from different tables or passages of the source. A value given as a limit tells only on which side of the number the result lay.

Experiment [1] concerns HL-60, human proleukemia cells. The experiment can be described thus: Cell-MTS proliferation assay, HL-60. The following applies: Homo sapiens, 168 hr. The format is cell-based. Put shortly: (§1)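 Cells were seeded per 96-well at densities giving ~90% confluence by day 7 (Raji 15,000, HL-60 5,000, NCI-H460 3,000) and dosed 24 hr later with an 11-point dilution, 100 μM to 2.0 nM final. Seven-day MTS colorimetric read at OD490; IC50 from background-subtracted, DMSO-normalised values.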
A general note: Tetrazolium assays rely on reduction of a dye to a coloured formazan, in cell work by metabolically active cells.

For experiment [2], the target named is BRD4(BD1) (Homo sapiens (Human), UniProt O60885). The experiment can be described thus: In vitro enzyme inhibition assay (BRD4 AlphaScreen). Type of experiment: binding. Put shortly:
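AlphaScreen proximity readout, using streptavidin donor and Ni-chelate acceptor beads at 5 μg/mL final, monitors biotin-H4 tetraacetylated peptide interaction with purified His-tagged BRD4.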

In experiment [3] the test system is Raji, human Burkitts lymphoma cells. The experiment can be described thus: Cell-MTS proliferation assay, Raji. Type of experiment: cell-based. The conditions noted are these: Homo sapiens, 168 hr. Put shortly: as §1
Experiment [4] relates to NCI-H460, human non-small cell lung cancer cells. Briefly: Cell-MTS proliferation assay, NCI-H460. The format is cell-based. The following applies: Homo sapiens, 168 hr. Put shortly: as §1
The mark [5] stands for this setting: in vitro enzyme inhibition assay.
The mark [6] stands for this setting: NCI-H460, Cell-MTS proliferation.
The mark [7] stands for this setting: Cell-MTS proliferation, HL-60 cells.
Where [8] appears, read: Cell-MTS proliferation, Raji cells.
[9] abbreviates: Cell-MTS proliferation, NCI-H460 cells.
Where [10] appears, read: HL-60, Cell-MTS, class symbols A/B/C.
Where [11] appears, read: Raji, Cell-MTS, class symbols A/B/C.
The mark [12] stands for this setting: NCI-H460, Cell-MTS, class symbols A/B/C.

Usually IC50 stands for the point on the concentration scale where inhibition reaches its midpoint. On to `COc1ccc(S(=O)(=O)CCO)cc1-c1cn(C)c(=O)c2ccc(-c3cnn(C)c3)cc12` [Example 208, 4-[5-(2-hydroxyethylsulfonyl)-2-methoxyphenyl]-2-methyl-6-(1-methylpyrazol-4-yl)isoquinolin-1-one], for which the half-maximal inhibitory concentration (IC50) in experiment [1] (HL-60, Cell-MTS proliferation) is under 500 nM; in experiment [2] (setting [5]), under 500 nM; in experiment [3] (Raji, Cell-MTS proliferation), 500 to 5000 nM; in experiment [4] (setting [6]), over 5000 nM.

As to `COc1cc(-c2cc(CS(C)(=O)=O)ccc2Oc2ccc(F)cc2F)cn(C)c1=O` [Example 400, 5-[2-(2,4-difluorophenoxy)-5-(methylsulfonylmethyl)phenyl]-3-methoxy-1-methylpyridin-2-one], the half-maximal inhibitory concentration (IC50) in experiment [1] (setting [7]) was under 500 nM; in experiment [2] (setting [5]), under 500 nM; in experiment [3] (setting [8]) it was under 500 nM; in experiment [4] (setting [9]), over 5000 nM.

`CCS(=O)(=O)Nc1cnc(Oc2ccc(F)cc2F)c(-c2cn(C)c(=O)c3occc23)c1` [Example 256, N-[6-(2,4-difluorophenoxy)-5-(6-methyl-7-oxofuro[2,3-c]pyridin-4-yl)pyridine-3-yl]ethanesulfonamide]: the IC50 in experiment [1] (HL-60, Cell-MTS proliferation) is under 500 nM; in experiment [2] (setting [5]), under 500 nM; in experiment [3] (Raji, Cell-MTS proliferation), under 500 nM; in experiment [4] (setting [6]) it was over 5000 nM.

For the compound `CCS(=O)(=O)Nc1cc(-c2cn(C)c(=O)c3ccc(-c4cnn(C)c4)cc23)c(OCC2CC2)cc1F` [Example 209, N-[4-(cyclopropylmethoxy)-2-fluoro-5-[2-methyl-6-(1-methylpyrazol-4-yl)-1-oxoisoquinolin-4-yl]phenyl]ethanesulfonamide], the half-inhibitory concentration (IC50) in experiment [1] (HL-60, Cell-MTS proliferation) was under 500 nM; in experiment [2] (setting [5]), under 500 nM; in experiment [3] (Raji, Cell-MTS proliferation), under 500 nM; in experiment [4] (setting [6]), over 5000 nM.

For `Cn1cc(-c2cc(S(C)(=O)=O)ccc2Oc2ccc(F)cc2F)cc(F)c1=O` [Example 120, 5-[2-(2,4-difluorophenoxy)-5-methylsulfonylphenyl]-3-fluoro-1-methylpyridin-2-one], the concentration for half-maximal inhibition (IC50) in experiment [1] (setting [10]) is 500 to 5000 nM; in experiment [2] (class symbols A/B/C) it was 500 to 5000 nM; in experiment [3] (setting [11]) it was over 5000 nM; in experiment [4] (setting [12]), over 5000 nM.

For the compound `Cn1cc(-c2cc(S(C)(=O)=O)ccc2OCC2CC2)cc(F)c1=O` [Example 119, 5-[2-(cyclopropylmethoxy)-5-methylsulfonylphenyl]-3-fluoro-1-methylpyridin-2-one], the concentration for half-maximal inhibition (IC50) in experiment [1] (setting [10]) was 500 to 5000 nM; in experiment [2] (class symbols A/B/C) it was 500 to 5000 nM; in experiment [3] (setting [11]), 500 to 5000 nM; in experiment [4] (setting [12]) it was over 5000 nM.

With `CCS(=O)(=O)c1ccc(OCC2CC2)c(-c2cn(C)c(=O)c3ccccc23)c1` [Example 135, 4-[2-(cyclopropylmethoxy)-5-ethylsulfonylphenyl]-2-methylisoquinolin-1-one], the IC50 is under 500 nM in experiment [1] (setting [10]), under 500 nM in experiment [2] (class symbols A/B/C), under 500 nM in experiment [3] (setting [11]) and 500 to 5000 nM in experiment [4] (setting [12]).

For `CCS(=O)(=O)c1ccc(OCC#CC2CC2)c(-c2cc(OC)c(=O)n(C)c2)c1` [Example 391, 5-[2-(3-cyclopropylprop-2-ynoxy)-5-ethylsulfonylphenyl]-3-methoxy-1-methylpyridin-2-one], the concentration for half-maximal inhibition (IC50) was under 500 nM in experiment [1] (setting [7]), under 500 nM in experiment [2] (setting [5]), 500 to 5000 nM in experiment [3] (setting [8]) and over 5000 nM in experiment [4] (setting [9]).

As for `CCS(=O)(=O)Nc1ccc(OCC2CC2)c(-c2cn(C)c(=O)c3sc(C(N)=O)cc23)c1` [Example 266, 4-[2-(cyclopropylmethoxy)-5-(ethylsulfonylamino)phenyl]-6-methyl-7-oxothieno[2,3-c]pyridine-2-carboxamide], the IC50 in experiment [1] (HL-60, Cell-MTS proliferation) was under 500 nM; in experiment [2] (setting [5]), under 500 nM; in experiment [3] (Raji, Cell-MTS proliferation), under 500 nM; in experiment [4] (setting [6]), over 5000 nM.

For the compound `Cc1cc(-c2cc(S(C)(=O)=O)ccc2OC2CCCC2)cn(C)c1=O` [Example 419, 5-(2-cyclopentyloxy-5-methylsulfonylphenyl)-1,3-dimethylpyridin-2-one], the concentration for half-maximal inhibition (IC50) in experiment [1] (setting [7]) was under 500 nM; in experiment [2] (setting [5]), under 500 nM; in experiment [3] (setting [8]), 500 to 5000 nM; in experiment [4] (setting [9]), over 5000 nM.

In the case of `Cn1cc(-c2cc(S(C)(=O)=O)ncc2OCC2CC2)c2ccccc2c1=O` [Example 200, 4-[5-(cyclopropylmethoxy)-2-methylsulfonylpyridin-4-yl]-2-methylisoquinolin-1-one], the IC50 is under 500 nM in experiment [1] (HL-60, Cell-MTS proliferation); under 500 nM in experiment [2] (setting [5]); 500 to 5000 nM in experiment [3] (Raji, Cell-MTS proliferation); over 5000 nM in experiment [4] (setting [6]).

As to `CCS(=O)(=O)c1ccc(OCC2CC2)c(-c2cc(OC)c(=O)n(C)c2)c1` [Example 399, 5-[2-(cyclopropylmethoxy)-5-ethylsulfonylphenyl]-3-methoxy-1-methylpyridin-2-one], the IC50 is under 500 nM in experiment [1] (setting [7]), under 500 nM in experiment [2] (setting [5]), under 500 nM in experiment [3] (setting [8]) and over 5000 nM in experiment [4] (setting [9]).

For `CCS(=O)(=O)Nc1cnc(OCC2CC2)c(-c2cn(C)c(=O)c3sc(C(N)=O)cc23)c1` [Example 268, 4-[2-(cyclopropylmethoxy)-5-(ethylsulfonylamino)pyridin-3-yl]-6-methyl-7-oxothieno[2,3-c]pyridine-2-carboxamide], the IC50 in experiment [1] (HL-60, Cell-MTS proliferation) was under 500 nM; in experiment [2] (setting [5]), under 500 nM; in experiment [3] (Raji, Cell-MTS proliferation), 500 to 5000 nM; in experiment [4] (setting [6]), over 5000 nM.

On to `Cn1cc(-c2cc(NS(C)(=O)=O)ccc2Oc2ccc(F)cc2F)ccc1=O` [Example 100, N-[4-(2,4-difluorophenoxy)-3-(1-methyl-6-oxopyridin-3-yl)phenyl]methanesulfonamide], for which the IC50 in experiment [1] (setting [10]) was under 500 nM; in experiment [2], under 500 nM; in experiment [3] (setting [11]) it was under 500 nM; in experiment [4] (setting [12]) it was over 5000 nM.

For `CCOc1ccc(S(N)(=O)=O)cc1-c1ccc(=O)n(C)c1` [Example 117, 4-ethoxy-3-(1-methyl-6-oxopyridin-3-yl)benzenesulfonamide], the half-inhibitory concentration (IC50) is 500 to 5000 nM in experiment [1] (setting [10]), under 500 nM in experiment [2] (class symbols A/B/C), 500 to 5000 nM in experiment [3] (setting [11]) and over 5000 nM in experiment [4] (setting [12]).

Take `CCCc1cnc(NS(=O)(=O)CC)nc1-c1cc(C)c(=O)n(C)c1` [Example 308, N-[4-(1,5-dimethyl-6-oxopyridin-3-yl)-5-propylpyrimidin-2-yl] ethanesulfonamide]: the half-inhibitory concentration (IC50) was under 500 nM in experiment [1] (HL-60, Cell-MTS proliferation); under 500 nM in experiment [2] (setting [5]); under 500 nM in experiment [3] (Raji, Cell-MTS proliferation); over 5000 nM in experiment [4] (setting [6]).

`Cc1cc(-c2cc(OCc3ccccc3C#N)cc(S(C)(=O)=O)c2)cn(C)c1=O` [Example 334, 2-[[3-(1,5-dimethyl-6-oxopyridin-3-yl)-5-methylsulfonylphenoxy]methyl]benzonitrile]: the IC50 was under 500 nM in experiment [1] (HL-60, Cell-MTS proliferation); under 500 nM in experiment [2] (setting [5]); 500 to 5000 nM in experiment [3] (Raji, Cell-MTS proliferation); over 5000 nM in experiment [4] (setting [6]).

With `CCS(=O)(=O)c1ccc(OCC2CC2)c(-c2cn(C)c(=O)c3ccoc23)c1` [Example 378, 7-[2-(cyclopropylmethoxy)-5-ethylsulfonylphenyl]-5-methylfuro[3,2-c] pyridin-4-one], the IC50 is under 500 nM in experiment [1] (setting [7]), under 500 nM in experiment [2] (setting [5]), under 500 nM in experiment [3] (setting [8]) and 500 to 5000 nM in experiment [4] (setting [9]).

Take `Cc1cc(-c2cc(NS(C)(=O)=O)ccc2OC2CCCOC2)cn(C)c1=O` (stereo not shown) [Example 446, N-[3-(1,5-dimethyl-6-oxopyridin-3-yl)-4-(oxan-3-yloxy)phenyl] methanesulfonamide]: the half-inhibitory concentration (IC50) is under 500 nM in experiment [1] (setting [7]), under 500 nM in experiment [2] (setting [5]), under 500 nM in experiment [3] (setting [8]) and over 5000 nM in experiment [4] (setting [9]).
